Experimental data published in ChEMBL document CHEMBL3132838, “Synthesis of chromenoindole derivatives from Robinia pseudoacacia” (Medchemcomm, 2013).
Calls of active or inactive are those of the source. No cut-off for these calls is given here.

Key:
HCT-116 [1] = test: Cytotoxicity against human p53-positive HCT116 cells assessed as cell viability after 24 hrs by MTT assay; type: functional, cell-based; conditions: HCT-116, 24 h
HL-60 [2] = test: Cytotoxicity against human HL60 cells assessed as cell survival at 200 uM after 72 hrs by MTT assay relative to control; type: functional; conditions: HL-60, 72 h, read-out: Survival
HL-60 [3] = test: Cytotoxicity against human HL60 cells assessed as cell survival at 40 uM after 72 hrs by MTT assay relative to control; type: functional; conditions: HL-60, 72 h, read-out: Survival
Aromatase = target: T1, Aromatase (Homo sapiens, UniProt P11511); test: Inhibition of human placental aromatase
T1 sequence (P11511 whole entry): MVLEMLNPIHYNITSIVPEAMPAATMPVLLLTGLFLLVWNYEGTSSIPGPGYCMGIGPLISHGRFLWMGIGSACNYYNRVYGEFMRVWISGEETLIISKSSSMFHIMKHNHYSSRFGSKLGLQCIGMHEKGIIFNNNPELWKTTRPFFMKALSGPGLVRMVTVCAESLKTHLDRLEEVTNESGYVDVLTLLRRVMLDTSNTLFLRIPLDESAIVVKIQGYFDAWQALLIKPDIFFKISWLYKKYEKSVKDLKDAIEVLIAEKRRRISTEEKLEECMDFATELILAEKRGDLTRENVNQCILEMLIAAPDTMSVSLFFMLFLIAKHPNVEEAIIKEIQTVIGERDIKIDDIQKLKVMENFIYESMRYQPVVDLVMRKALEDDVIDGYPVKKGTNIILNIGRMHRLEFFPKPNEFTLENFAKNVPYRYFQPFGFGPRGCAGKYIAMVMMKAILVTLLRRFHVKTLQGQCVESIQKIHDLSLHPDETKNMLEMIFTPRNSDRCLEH

HCT-116 [4] = test: Cytotoxicity against human p53-positive HCT116 cells assessed as cell viability up to 100 uM after 24 hrs by MTT assay; type: functional, cell-based
Steinernema feltiae = test: Nematicidal activity against Steinernema feltiae assessed as viability up to 200 uM after 48 hrs by microscopic analysis; type: functional
[5] = test system: Radical scavenging activity; test: Antioxidant activity assessed as DPPH radical scavenging activity; type: functional

Row | SMILES | IC50 (HCT-116 [1]) [µM] | viability at 200 µM (HL-60 [2]) [%] | viability at 40 µM (HL-60 [3]) [%] | IC50 (Aromatase) [µM] | Activity (HCT-116 [4]) | Activity (Steinernema feltiae) | IC50 [5] [µM]
1 | COc1ccc2c3c([nH]c2c1)-c1ccc(O)cc1OC3 | 66.1 | – | – | – | – | – | –
2 | COc1ccc2c(c1)N[C@H]1c3ccc(O)cc3OC[C@@H]21 (racemic) | – | 27 | 72 | > 300 | inactive | inactive | > 300
